Measurements as given in patent US20030212100A1, “Quinoline derivatives and medicinal use thereof” (priority 2000, published 2003).

Assays:
human PPARα receptor = molecular target: T1, human PPARα receptor (Homo sapiens, UniProt Q07869); experiment: Luciferase reporter assay of PPARα agonist activity (Gal4-PPARα chimera receptor in CV-1 cells); format: cell-based; conditions: luciferase activity with 10 μM Wy-14,643 taken as 100, read-out: PPARα agonist activity, relative activity; for Emax at 0.1 µM: CV-1, 0.1 μM compound; for Emax at 1 µM: CV-1, 1 μM compound; for Emax at 10 µM: CV-1, 10 μM compound
T1 construct: expressed in transfected cells; host or cells: CV-1 cells (pSG5-based expression vector)
T1 sequence (Q07869 167-468): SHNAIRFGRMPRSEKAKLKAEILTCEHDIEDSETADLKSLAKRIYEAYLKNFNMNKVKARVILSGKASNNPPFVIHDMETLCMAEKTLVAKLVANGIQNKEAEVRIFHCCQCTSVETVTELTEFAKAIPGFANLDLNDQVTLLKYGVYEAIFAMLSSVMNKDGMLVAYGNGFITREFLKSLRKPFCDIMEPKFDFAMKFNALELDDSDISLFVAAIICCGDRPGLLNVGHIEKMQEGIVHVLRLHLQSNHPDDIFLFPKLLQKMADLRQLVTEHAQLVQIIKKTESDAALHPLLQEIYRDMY
Procedure: (§1) Measurement of PPARα Agonist Activity and PPARγ Agonist Activity
(§2) 1. Materials for Assay of Luciferase Using Human PPARα and PPARγ Receptors
(§3) The entire procedure was carried out according to the fundamental methods of genetic engineering and the ordinary method in the yeast one-hybrid or two-hybrid system was applied.
(§4) PGL2-UAS5-TK-luc was prepared as a reporter plasmid carrying a response sequence of Gal4 protein as a basic transcription factor of yeast, an enhancer sequence with five repeat part of UAS, a luciferase gene (luc) under the control of timidine kinase (TK) promoter. Specifically, a DNA fragment encoding a TK promoter (−105/+51) on the downstream side of an enhancer sequence comprising two time repeat of UAS was amplified by PCR using pRL-TK carrying a TK promoter (Promega, Trade name: Catalogue No. E2241) as the template and the primers: […]
(§5) After the fragment was cleaved with XhoI-Hind III, pGL2-UAS2-TK-luc was obtained by inserting the resultant fragment into the XhoI-Hind III site located on the upstream side of a luciferase structural gene on pGL2-Basic vector (Promega, Trade name: Catalogue No. E1641).
(§6) After cleavage of a synthetic DNA as an enhancer sequence comprising three time repeat of Gal4 response sequence (SEQ ID NO: 3): 5′-ATTGGTAC([…])×3 AGATCTCGAC) using KpnI and BgIII was carried out, pGL2-UAS5-TK-luc was prepared by inserting the resulting fragment into the KpnI-BgIIIb site of pGL2-UAS2-TK-luc.
(§7) A vector for expression of a chimera receptor protein, in which a ligand binding region of an internuclear receptor human PPARα or PPARγ receptor was fused with the carboxyl terminal of a DNA binding region of yeast Ga14 protein, was prepared as follows:
(§8) The structural gene of pSG5 (STRATAGENE, Trade Name: Catalogue No. 216201) as the basic expression vector was changed for the chimera receptor except that the promoter-enhancer region was maintained as it was.
(§9) The DNA encoding the ligand binding region of the human PPARα or PPARγ receptor was fused on the downstream side of the DNA encoding the DNA binding region and the amino acid sequence from 1 to 147 positions of Ga14 protein so that their reading frames were fitted and the resulting fused DNA was inserted into pSG5 (trade name) on the down stream side of the promoter-enhancer region. In this step, the DNA sequence was arranged so that a signal for transfer into the nucleus (Ala Pro Lys Lys Lys Arg Lys Val Gly (SEQ ID: No: 4) derived from SV-40T antigen was located on the amino terminal of the ligand binding region of PPARα or PPARγ receptor in order to localize the chimera receptor in the nucleus.
(§10) Based on comparison of the human PPAR receptors described in R. Mukherjee et al., [see J. Steroid Biochem. Molec. Biol., Vol. 51, p157 (1994)] and M. E. Green et al., [see Gene Expression, Vol. 4, p281 (1995))], as the structural gene part used for the ligand binding region PPARα or PPARγ, the human PPARα ligand binding region: Ser167-Tyr468; and the PPARγ ligand binding region: Ser176-Tyr478 were used, which had the same sequences corresponding to Ser204-Tyr506 for human PPARγ1 receptor and human PPARγ2, respectively.
(§11) In order to monitor influence against the basic transcription, an expression vector was prepared which carried a DNA encoding only the DNA binding region and the amino acid sequence from 1 to 147 position of Ga14 protein defective in its PPAR ligand binding region and a signal for transfer into the nucleus of SV-40T-antigen.
(§12) 2. Assay of Luciferase Using Human PPARα or PPARγ Receptor
(§13) CV-1 cells used as a host cell were cultivated according to an ordinary method. Specifically, a fetal bovine serum (Intergent, Catalogue No. 1020-90) was added to a Dulbecco's modified Eagle's medium (DMEM) so that the final concentration became 10%. Further, penicillin G (50 U/ml) and streptomycin sulfate (50 μg/ml) were added. Cultivation was conducted in the resulting medium in a 5% carbon dioxide gas at 37° C. […]

human PPARγ receptor = molecular target: T2, human PPARγ receptor (Homo sapiens, UniProt P37231); experiment: Luciferase reporter assay of PPARγ agonist activity (Gal4-PPARγ chimera receptor in CV-1 cells); format: cell-based; conditions: luciferase activity with 1 μM Pioglitazone taken as 100, read-out: PPAR γ agonist activity, relative activity; for Emax at 0.1 µM: CV-1, 0.1 μM compound; for Emax at 1 µM: CV-1, 1 μM compound; for Emax at 10 µM: CV-1, 10 μM compound
T2 construct: corresponding to Ser204-Tyr506 for human PPARγ1 receptor and human PPARγ2; expressed in transfected cells; host or cells: CV-1 cells (pSG5-based expression vector)
T2 sequence (P37231 204-505 limits assumed): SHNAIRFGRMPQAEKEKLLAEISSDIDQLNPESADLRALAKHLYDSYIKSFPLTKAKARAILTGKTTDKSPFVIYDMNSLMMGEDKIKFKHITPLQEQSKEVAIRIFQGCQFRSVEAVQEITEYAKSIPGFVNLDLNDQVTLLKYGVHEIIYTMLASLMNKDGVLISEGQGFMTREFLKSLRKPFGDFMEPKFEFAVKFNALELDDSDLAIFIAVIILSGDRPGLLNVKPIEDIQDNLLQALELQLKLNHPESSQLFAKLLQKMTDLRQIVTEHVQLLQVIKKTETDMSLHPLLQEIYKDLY
Procedure: as §1, §2, §3, §4, §5, §6, §7, §8, §9, §10, §11, §12, §13

Row | SMILES | Emax at 0.1 µM (human PPARα receptor) | Emax at 1 µM (human PPARα receptor) | Emax at 10 µM (human PPARα receptor) | Emax at 0.1 µM (human PPARγ receptor) | Emax at 1 µM (human PPARγ receptor) | Emax at 10 µM (human PPARγ receptor)
1 | CCOC(Cc1ccc(OCc2cnc3cc(C)cc(C)c3c2OC(C)C)cc1)C(=O)O (stereo not drawn) [Example 5 (71), 2-ethoxy-3-{[4-(4-isopropoxy-5,7-dimethylquinoline-3-yl)methyloxy]phenyl}propanoic acid] | 0.3% | 0.5% | 28.4% | 0.3% | 0.4% | 11.6%
2 | CCOC(Cc1ccc(OCc2cnc3cc(C(F)(F)F)ccc3c2OC(C)C)cc1)C(=O)O (stereo not drawn) [Example 12 (85), 2-ethoxy-3-{[4-(4-isopropoxy-7-trifluoromethylquinoline-3-yl)methyloxy]phenyl}propanoic acid] | 0.2% | 0.3% | 6.4% | 1.2% | 60.4% | 111%
3 | CCOC(=O)C(Cc1ccc(OCc2cnc3ccc(OC)cc3c2OC(C)C)cc1)OCC (stereo not drawn) [Example 1 (101), ethyl 2-ethoxy-3-{[4-(4-isopropoxy-6-methoxyquinoline-3-yl)methyloxy]phenyl}propanoate] | 0.2% | 0.9% | 28.7% | 98.6% | 127% | 102%
4 | CCOC(Cc1ccc(OCc2cnc3cc(OC)c(OC)cc3c2OC(C)C)cc1)C(=O)O (stereo not drawn) [Example 8 (65), 2-ethoxy-3-{[4-(4-isopropoxy-6,7-dimethoxyquinoline-3-yl)methyloxy]phenyl}propanoic acid] | 0.3% | 0.3% | 1.5% | 1.3% | 13% | 107%
5 | CCOC(Cc1ccc(OCc2cc(OC)c3ccccc3n2)cc1)C(=O)O (stereo not drawn) [Example 11 (99), 2-ethoxy-3-{[4-(4-methoxyquinoline-2-yl)methyloxy]phenyl}propanoic acid] | 25.2% | 64.3% | 68.6% | 75.2% | 115% | 106%
6 | COc1ccc2ncc(COc3ccc(/C=C(\Sc4ccccc4)C(=O)O)cc3)c(OC(C)C)c2c1 [Example 18 (112), 3-{[4-(4-isopropoxy-6-methoxyquinoline-3-yl)methyloxy]phenyl}-2-phenylthiopropenoic acid] | 0.3% | 0.3% | 0.3% | 0.5% | 22.2% | 89.9%
7 | CCOC(Cc1ccc(OCc2cnc3c(C(F)(F)F)cccc3c2OC(C)C)cc1)C(=O)O (stereo not drawn) [Example 14 (86), 2-ethoxy-3-{[4-(4-isopropoxy-8-trifluoromethylquinoline-3-yl)methyloxy]phenyl}propanoic acid] | 0.3% | 0.3% | 2.1% | 19.6% | 76% | 132%
